Test results published in the supplement of paper PMC10307832.

What was measured:
Assay in all cases: relative viability (nuclei count vs DMSO), 5 days (fraction); higher = more cells survive
[1] = compound: C1CNCCC1C2=CC(=NN2)C3=CC=NC=C3 + CC(C)C[C@H](NC(=O)[C@H](Cc1ccccc1)NC(=O)c1cnccn1)B(O)O [Bortezomib] (partner 0.002 µM)
Outline: (§1)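 A single step with final 0.05% Triton X-100, 1% formaldehyde and 1 ug/ml Hoechst fixed the cells and stained nuclei 5 days after treatment. Lung cancer cell lines in 1536-well plates had been treated by pin tool the day after seeding with one drug alone or a fixed anchor-drug dose plus five library-drug doses (not always all listed) in √10 steps, and nuclei were counted on 4× images. Relative viability is the ratio of nuclei in treated wells to nuclei in vehicle wells, taken as the median of duplicate plates.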

Tanzisertib + Alpelisib = compound: O[C@H]1CC[C@H](Nc2ncc3nc(Nc4c(F)cc(F)cc4F)n([C@H]4CCOC4)c3n2)CC1 [Tanzisertib] + Cc1nc(NC(=O)N2CCC[C@H]2C(N)=O)sc1-c1ccnc(C(C)(C)C(F)(F)F)c1 [Alpelisib] (partner 2 µM)
Outline: as §1

[2] = compound: C[C@@H](N)c1ccc(C(=O)Nc2ccnc3[nH]ccc23)cc1 + O=C(CCCCCCC(=O)Nc1ccccc1)NO [Vorinostat] (partner 1 µM)
Outline: as §1

Tanzisertib + Tozasertib = compound: O[C@H]1CC[C@H](Nc2ncc3nc(Nc4c(F)cc(F)cc4F)n([C@H]4CCOC4)c3n2)CC1 [Tanzisertib] + Cc1cc(Nc2cc(N3CCN(C)CC3)nc(Sc3ccc(NC(=O)C4CC4)cc3)n2)n[nH]1 [Tozasertib] (partner 0.1 µM)
Outline: as §1

## UMC-11
[1]; first compound 0.08 µM
  relative viability: 0.643
[1]; first compound 0.8 µM
  relative viability: 0.919
[1]; first compound 2.53 µM
  relative viability: 0.786
[1]; first compound 8 µM
  relative viability: 0.688
Tanzisertib + Alpelisib; first compound 0.08 µM
  relative viability: 0.835
Tanzisertib + Alpelisib; first compound 0.253 µM
  relative viability: 0.987
Tanzisertib + Alpelisib; first compound 0.8 µM
  relative viability: 0.999
Tanzisertib + Alpelisib; first compound 2.53 µM
  relative viability: 0.956
Tanzisertib + Alpelisib; first compound 8 µM
  relative viability: 1.13
[2]; first compound 0.04 µM
  relative viability: 0.459
[2]; first compound 0.1265 µM
  relative viability: 0.514
[2]; first compound 0.4 µM
  relative viability: 0.515
[2]; first compound 1.265 µM
  relative viability: 0.504
[2]; first compound 4 µM
  relative viability: 0.356
Tanzisertib + Tozasertib; first compound 0.08 µM
  relative viability: 0.208
Tanzisertib + Tozasertib; first compound 0.253 µM
  relative viability: 0.191
Tanzisertib + Tozasertib; first compound 0.8 µM
  relative viability: 0.212
Tanzisertib + Tozasertib; first compound 2.53 µM
  relative viability: 0.215
Tanzisertib + Tozasertib; first compound 8 µM
  relative viability: 0.209
